Assays:
Format in all cases: in vivo
[1] = test system: ECHCO Echinochloa colona (L.) Link; junglerice; experiment: Postemergence foliar-applied greenhouse trial, weed control in direct-seeded rice
From the text: (§1) Results in Examples I and II are greenhouse trial results.
(§2) Seeds or nutlets of the desired test plant species were planted in a soil matrix prepared by mixing a loam or sandy loam soil (e.g., 28.6 percent silt, 18.8 percent clay, and 52.6 percent sand, with a pH of about 5.8 and an organic matter content of about 1.8 percent) and calcareous grit in an 80 to 20 ratio. The soil matrix was contained in plastic pots with a volume of 1 quart and a surface area of 83.6 square centimeters (cm^2). When required to ensure good germination and healthy plants, a fungicide treatment and/or other chemical or physical treatment was applied. The plants were grown for 8-22 days in a greenhouse with an approximate 14 h photoperiod which was maintained at about 29° C. during the day and 26° C. during the night. Nutrients (Peters Excel® 15-5-15 5-Ca 2-Mg and iron chelate) were applied in the irrigation solution as needed and water was added on a regular basis. Supplemental lighting was provided with overhead metal halide 1000-Watt lamps as necessary. The plants were employed for testing when they reached the first through fourth true leaf stage.
(§3) Treatments consisted of the acid or esters of 4-amino-3-chloro-5-fluoro-6-(4-chloro-2-fluoro-3-methoxy-phenyl)pyridine-2-carboxylic acid (Compound A), each formulated as an SC (suspension concentrate), and various herbicidal components alone and in combination. Forms of compound A were applied on an acid equivalent basis.
(§4) Other herbicidal components were applied on an active ingredient basis and consisted of clomazone formulated as Command® 3ME. Treatment requirements were calculated based upon the rates being tested, the concentration of active ingredient or acid equivalent in the formulation, and a 12 mL application volume at a rate of 187 L/ha.
(§5) For treatments comprised of formulated compounds, measured amounts of compounds were placed individually in 25 mL glass vials and diluted in a volume of 1.25% (v/v) Agri-Dex® crop oil concentrated to obtain 12× stock solutions. […] Application solutions were prepared by adding an appropriate amount of each stock solution (e.g., 1 mL) and diluted to the appropriate final concentrations with the addition of 10 mL of an aqueous mixture of 1.25% (v/v) crop oil concentrate so that the final spray solutions contained 1.25+/−0.05% (v/v) crop oil concentrate.
(§6) All stock solutions and applications solutions were visually inspected for compound compatibility prior to application. Spray solutions were applied to the plant material with an overhead Mandel track sprayer equipped with a 8002E nozzles calibrated to deliver 187 L/ha over an application area of 0.503 m^2 at a spray height of 18 to 20 inches (46 to 50 cm) above average plant canopy height. Control plants were sprayed in the same manner with the solvent blank.
(§7) The treated plants and control plants were placed in a greenhouse as described above and watered by sub-irrigation to prevent wash-off of the test compounds. After approximately 3 weeks, the condition of the test plants as compared with that of the untreated plants was determined visually and scored on a scale of 0 to 100 percent where 0 corresponds to no injury or growth inhibition and 100 corresponds to complete kill.
(§8) Colby's equation was used to determine the herbicidal effects expected from the mixtures (Colby, S. R. 1967. Calculation of the synergistic and antagonistic response of herbicide combinations. Weeds 15:20-22.).
(§9) The following equation was used to calculate the expected activity of mixtures containing two active ingredients, A and B: Expected=A+B−(A×B/100)
(§10) A=observed efficacy of active ingredient A at the same concentration as used in the mixture.
(§11) B=observed efficacy of active ingredient B at the same concentration as used in the mixture.

[2] = test system: ECHCG Echinochloa crus-galli (L.) Beauv.; barnyardgrass; experiment: as above
From the text: as §1, §2, §3, §4, §5, §6, §7, §8, §9, §10, §11

[3] = test system: LEFCH Leptochloa chinensis (L.) Nees; sprangletop, Chinese; experiment: as above
From the text: as §1, §2, §3, §4, §5, §6, §7, §8, §9, §10, §11

[4] = test system: IPOHE Ipomoea hederacea Jacq.; morningglory, ivyleaf; experiment: as above
From the text: as §1, §2, §3, §4, §5, §6, §7, §8, §9, §10, §11

[5] = test system: DIGSA Digitaria sanguinalis (L.) Scop.; crabgrass, large; experiment: as above
From the text: as §1, §2, §3, §4, §5, §6, §7, §8, §9, §10, §11

[6] = test system: CYPRO Cyperus rotundus L. nutsedge, purple; experiment: In-water applied greenhouse trial, weed control in transplanted paddy rice
Method: as §1
(§12) Weed seeds or nutlets of the desired test plant species were planted in puddled soil (mud) prepared by mixing a shredded, non-sterilized mineral soil (50.5 percent silt, 25.5 percent clay, and 24 percent sand, with a pH of about 7.6 and an organic matter content of about 2.9 percent) and water at a 1:1 volumetric ratio. The prepared mud was dispensed in 365 mL aliquots into 16-ounce (oz.) non-perforated plastic pots with a surface area of 86.59 square centimeters (cm^2) leaving a headspace of 3 centimeters (cm) in each pot. Rice seeds were planted in Sun Gro MetroMix® 306 planting mixture, which typically has a pH of 6.0 to 6.8 and an organic matter content of about 30 percent, in plastic plug trays. Seedlings at the second or third leaf stage of growth were transplanted into 860 mL of mud contained in 32-oz. non-perforated plastic pots with a surface area of 86.59 cm^2 4 days prior to herbicide application. The paddy was created by filling the headspace of the pots with 2.5 to 3 cm of water. When required to ensure good germination and healthy plants, a fungicide treatment and/or other chemical or physical treatment was applied. The plants were grown for 4-22 days in a greenhouse with an approximate 14 h photoperiod which was maintained at about 29° C. during the day and about 26° C. during the night. Nutrients were added as Osmocote® (17:6:10, N:P:K+minor nutrients) at 2 g per 16-oz. pot and 4 g per 32-oz. pot. Water was added on a regular basis to maintain the paddy flood, and supplemental lighting was provided with overhead metal halide 1000-Watt lamps as necessary. The plants were employed for testing when they reached the first through fourth true leaf stage.
as §3, with “(compound A)” for “(Compound A),”, “concentrate)” for “concentrate),”
(§13) Other herbicidal components were applied on an active ingredient basis and consisted of clomazone formulated as Command® 3ME.
(§14) Treatment requirements for each compound or herbicidal component were calculated based upon the rates being tested, the concentration of active ingredient or acid equivalent in the formulation, an application volume of 2 mL per component per pot, and an application area of 86.59 cm^2 per pot.
(§15) For formulated compounds, a measured amount was placed in an individual 100 or 200 mL glass vial and was dissolved in a volume of 1.25% (v/v) Agri-Dex® crop oil concentrate to obtain application solutions.
(§16) Applications were made by injecting appropriate amounts of the application solutions with a pipetter, individually and sequentially, into the aqueous layer of the paddy. Control plants were treated in the same manner with the solvent blank. Applications were made so that all treated plant material received the same concentrations of acetone and crop oil concentrate.
as §7, with “water was added as needed” for “watered by sub-irrigation”, “maintain a paddy flood.” for “prevent wash-off of the test compounds.”, “weeks” for “weeks,”
as §8, §9
(§17) A=observed efficacy of active ingredient A at the same concentration as used in the mixture. […]

[7] = test system: CYPDI Cyperus difformis L. sedge, smallflower umbrella; experiment: as above
Method: as §1, §12
as §3, with “(compound A)” for “(Compound A),”, “concentrate)” for “concentrate),”
as §13, §14, §15, §16
as §7, with “water was added as needed” for “watered by sub-irrigation”, “maintain a paddy flood.” for “prevent wash-off of the test compounds.”, “weeks” for “weeks,”
as §8, §9, §17

[8] = test system: SCPMA Bolboschoenus maritimus (L.) Palla clubrush, sea; experiment: as above
Method: as §1, §12
as §3, with “(compound A)” for “(Compound A),”, “concentrate)” for “concentrate),”
as §13, §14, §15, §16
as §7, with “water was added as needed” for “watered by sub-irrigation”, “maintain a paddy flood.” for “prevent wash-off of the test compounds.”, “weeks” for “weeks,”
as §8, §9, §17

[9] = Compound A Benzyl Ester 0 gae/ha, Clomazone 56 gai/ha
[10] = Compound A Benzyl Ester 0 gae/ha, Clomazone 112 gai/ha
[11] = Compound A Benzyl Ester 0 gae/ha, Clomazone 224 gai/ha
[12] = Compound A Acid 0 gae/ha, Clomazone 112 gai/ha
[13] = Compound A Acid 0 gae/ha, Clomazone 224 gai/ha
[14] = Compound A Acid 0 gae/ha, Clomazone 448 gai/ha
[15] = Compound A Acid 17.5 gae/ha, Clomazone 0 gai/ha
[16] = Compound A Acid 4.38 gae/ha, Clomazone 0 gai/ha
[17] = Compound A Acid 8.75 gae/ha, Clomazone 0 gai/ha
[18] = Compound A Acid 16 gae/ha, Clomazone 0 gai/ha
[19] = Compound A Benzyl Ester 4.38 gae/ha, Clomazone 0 gai/ha
[20] = Compound A Benzyl Ester 17.5 gae/ha, Clomazone 0 gai/ha
[21] = Compound A Benzyl Ester 8 gae/ha, Clomazone 0 gai/ha
[22] = Compound A Benzyl Ester 16 gae/ha, Clomazone 0 gai/ha
[23] = Compound A Benzyl Ester 32 gae/ha, Clomazone 0 gai/ha

CC1(C)CON(Cc2ccccc2Cl)C1=O [Clomazone, 2-[(2-chlorophenyl)methyl]-4,4-dimethyl-3-isoxazolidinone]
Visual Weed Control (%) - 19 DAA Obs [1, 9]: 10%
Visual Weed Control (%) - 19 DAA Obs [1, 10]: 10%
Visual Weed Control (%) - 19 DAA Obs [1, 11]: 10%
Visual Weed Control (%) - 19 DAA Obs [2, 9]: 10%
Visual Weed Control (%) - 19 DAA Obs [2, 10]: 10%
Visual Weed Control (%) - 19 DAA Obs [2, 11]: 10%
Visual Weed Control (%) - 19 DAA Obs ([3]; Table 1, Compound A Acid 0 gae/ha, Clomazone 56 gai/ha): 0%
Visual Weed Control (%) - 19 DAA Obs ([3]; Table 1, Compound A Acid 0 gae/ha, Clomazone 112 gai/ha): 0%
Visual Weed Control (%) - 19 DAA Obs ([3]; Table 1, Compound A Acid 0 gae/ha, Clomazone 224 gai/ha): 15%
Visual Weed Control (%) - 19 DAA Obs ([3]; Table 2, Compound A Benzyl Ester 0 gae/ha, Clomazone 56 gai/ha): 0%
Visual Weed Control (%) - 19 DAA Obs ([3]; Table 2, Compound A Benzyl Ester 0 gae/ha, Clomazone 112 gai/ha): 0%
Visual Weed Control (%) - 19 DAA Obs ([3]; Table 2, Compound A Benzyl Ester 0 gae/ha, Clomazone 224 gai/ha): 15%
Visual Weed Control (%) - 19 DAA Obs [4, 12]: 20%
Visual Weed Control (%) - 19 DAA Obs [4, 13]: 20%
Visual Weed Control (%) - 19 DAA Obs ([5]; Compound A Acid 0 gae/ha, Clomazone 56 gai/ha): 0%
Visual Weed Control (%) - 19 DAA Obs [5, 12]: 0%
Visual Weed Control (%) - 19 DAA Obs [5, 13]: 0%
Visual Weed Control (%) - 21 DAA Obs [6, 12]: 0%
Visual Weed Control (%) - 21 DAA Obs ([6]; Compound A Benzyl Ester 0 gae/ha, Clomazone 448 gai/ha): 0%
Visual Weed Control (%) - 21 DAA Obs [7, 13]: 20%
Visual Weed Control (%) - 21 DAA Obs [7, 14]: 40%
Visual Weed Control (%) - 22 DAA Obs [8, 14]: 25%
Visual Weed Control (%) - 21 DAA Obs [8, 10]: 0%
Visual Weed Control (%) - 19 DAA Obs ([8]; Compound A Benzyl Ester 0 gae/ha, Clomazone 670 gai/ha): 0%

COc1c(Cl)ccc(-c2nc(C(=O)O)c(Cl)c(N)c2F)c1F [Compound A Acid, 4-amino-3-chloro-6-(4-chloro-2-fluoro-3-methoxyphenyl)-5-fluoropyridine-2-carboxylic acid]
Visual Weed Control (%) - 19 DAA Obs [3, 15]: 55%
Visual Weed Control (%) - 19 DAA Obs [4, 16]: 0%
Visual Weed Control (%) - 19 DAA Obs [4, 17]: 10%
Visual Weed Control (%) - 19 DAA Obs [5, 16]: 30%
Visual Weed Control (%) - 21 DAA Obs [6, 17]: 0%
Visual Weed Control (%) - 21 DAA Obs [6, 15]: 30%
Visual Weed Control (%) - 21 DAA Obs ([6]; Compound A Acid 35 gae/ha, Clomazone 0 gai/ha): 85%
Visual Weed Control (%) - 21 DAA Obs [7, 18]: 30%
Visual Weed Control (%) - 22 DAA Obs [8, 18]: 0%
Visual Weed Control (%) - 22 DAA Obs ([8]; Compound A Acid 32 gae/ha, Clomazone 0 gai/ha): 0%
Visual Weed Control (%) - 22 DAA Obs ([8]; Compound A Acid 64 gae/ha, Clomazone 0 gai/ha): 30%

COc1c(Cl)ccc(-c2nc(C(=O)OCc3ccccc3)c(Cl)c(N)c2F)c1F [Compound A Benzyl Ester]
Visual Weed Control (%) - 19 DAA Obs [1, 19]: 65%
Visual Weed Control (%) - 19 DAA Obs [2, 19]: 55%
Visual Weed Control (%) - 19 DAA Obs [3, 20]: 30%
Visual Weed Control (%) - 21 DAA Obs [6, 21]: 70%
Visual Weed Control (%) - 21 DAA Obs [6, 22]: 95%
Visual Weed Control (%) - 21 DAA Obs [6, 23]: 90%
Visual Weed Control (%) - 21 DAA Obs [8, 19]: 0%
Visual Weed Control (%) - 19 DAA Obs [8, 21]: 0%
Visual Weed Control (%) - 21 DAA Obs ([8]; Compound A Benzyl Ester 8.75 gae/ha, Clomazone 0 gai/ha): 0%
Visual Weed Control (%) - 19 DAA Obs [8, 22]: 0%
Visual Weed Control (%) - 21 DAA Obs [8, 20]: 0%
Visual Weed Control (%) - 19 DAA Obs [8, 23]: 0%
